# Results as given in the OligoGym collection.
# Bases are written 5' to 3'; sugars and linkages follow in the same order, as letters with counts (s phosphorothioate, o phosphodiester; PS: all linkages phosphorothioate). The collection does not say whether C is 5-methylated. l = locked nucleic acid (LNA); d = 2'-deoxy (DNA)
# Molecular target: Tau
# Experiment: rat primary cortical neurons, FLIPR, 25 uM ASO
row,Sequence,calcium oscillation score
1,"CTCATTTACCAATTATCTTT (sugars l4 d14 l2, PS)",64 % of control
2,"TTCTTTTTTTTTCCACACTC (sugars l3 d15 l2, PS)",27.4 % of control
3,"TATTTCCAAATTCACTTTTA (sugars l5 d10 l5, PS)",≥ 200 % of control
4,"CTAAGGCAAGGCCTAT (sugars l3 d10 l3, PS)",83 % of control
5,"CTTTATTTCCAAATTCACTT (sugars l3 d1 l1 d12 l3, PS)",29.8 % of control
6,"AGAGGCACAAGTCCT (sugars l3 d9 l3, PS)",74.3 % of control
7,"CCCCTCCATTAAGAAC (sugars l3 d11 l2, PS)",68.1 % of control
8,"TTCCATCCTAAGTCAACC (sugars l3 d13 l2, PS)",70.6 % of control
9,"CAGAATATTACACCAT (sugars l4 d8 l4, PS)",102 % of control
10,"TTCTCGCGGAAGGTCA (sugars l3 d10 l3, PS)",0 % of control
11,"CTTTATTTCCAAATTCACT (sugars l3 d11 l2 d1 l2, PS)",116 % of control
12,"CCCACATAAACTCCTT (sugars l3 d10 l3, PS)",53.4 % of control
13,"GAAATCCCTCTACTCC (sugars l2 d11 l3, PS)",70.7 % of control
14,"GGGAGGCAGACACCTCGTCA (sugars l3 d14 l3, PS)",102 % of control
15,"TGCCTAATGAGCCACACTTG (sugars l3 d14 l3, PS)",29.9 % of control
16,"CCAAAACATTCTCACCAAAC (sugars l3 d15 l2, PS)",68.1 % of control
17,"GCCTCTAGCCACATGGACCC (sugars l3 d14 l3, PS)",4.03 % of control
18,"TTCCTCAGAAGGCATT (sugars l3 d10 l3, PS)",36.9 % of control
19,"CCCTAAAGTCCCAGGT (sugars l3 d10 l3, PS)",76.2 % of control
20,"GCACCATATTACACCA (sugars l3 d11 l2, PS)",95.9 % of control
21,"GCTTTTCCCAATTATTA (sugars l4 d11 l2, PS)",62 % of control
22,"TGAGCACTAACTCTAAGTAG (sugars l3 d14 l3, PS)",21.4 % of control
23,"GGAACTATTGATAA (sugars l3 d8 l3, PS)",0 % of control
24,"CACTTTCCTAATTCCCAAAT (sugars l2 d16 l2, PS)",62.1 % of control
25,"TGATGGATGTTGCCTA (sugars l3 d10 l3, PS)",29.6 % of control
26,"CTACTATTTACTATGC (sugars l3 d9 l4, PS)",66.8 % of control
27,"AGAAATAAGTGGTAGT (sugars l4 d8 l4, PS)",88.1 % of control

row,Sequence,calcium oscillation score
1,"CTTTATTTCCAAATTCACT (sugars l3 d11 l1 d2 l2, PS)",140 % of control
2,"TTATTAATTATCTGCA (sugars l3 d10 l3, PS)",58.7 % of control
3,"CATTCCCTCCAGAACCATCA (sugars l3 d14 l3, PS)",34.2 % of control
4,"TATACAGTTGGCCCTACCAT (sugars l3 d14 l3, PS)",16.7 % of control
5,"CATGCAGTTTATTCCTGGCA (sugars l3 d14 l3, PS)",6.04 % of control
6,"TTTGAAGTCCCGAGCC (sugars l3 d10 l3, PS)",22.4 % of control
7,"ACCCTTGATCATATTTGTGG (sugars l3 d14 l3, PS)",30.9 % of control
8,"TCTAAGTAGACCCTGGCCAC (sugars l3 d14 l3, PS)",23.8 % of control
9,"CTCTTATCTTTGTTTCTA (sugars l4 d12 l2, PS)",51.1 % of control
10,"CTAATATCCTTGCTATC (sugars l3 d10 l4, PS)",55.7 % of control
11,"CCCAGAATTCTAACTA (sugars l4 d10 l2, PS)",63.5 % of control
12,"TTCCAGTCCCGTCTTT (sugars l3 d10 l3, PS)",73.1 % of control
13,"GACTTGTACACGATCTCCGC (sugars l3 d14 l3, PS)",66.8 % of control
14,"CATATTCTTCCCTTAATAA (sugars l3 d13 l3, PS)",68 % of control
15,"TCAGGTCAACTGGTTTGTAG (sugars l3 d14 l3, PS)",0 % of control
16,"CTTACAACCAACACTGA (sugars l3 d10 l4, PS)",49.7 % of control
17,"TTTATGATGGATGTTGCCTA (sugars l3 d14 l3, PS)",6.64 % of control
18,"GGCTTTGGCGTTCTCG (sugars l3 d10 l3, PS)",1.35 % of control
19,"CAACTGGTTTGTAGAC (sugars l3 d10 l3, PS)",42.9 % of control
20,"CCGTGGTCTGTCTTGG (sugars l3 d10 l3, PS)",42.2 % of control
21,"CAAAACATTCTCACCAAACC (sugars l4 d14 l2, PS)",84.8 % of control
22,"GCCCTAAAGTCCCAG (sugars l3 d9 l3, PS)",34.3 % of control
23,"TTCTCAGCACACCATTA (sugars l3 d12 l2, PS)",60.1 % of control
24,"AACACCTTTTAATTCATT (sugars l4 d10 l4, PS)",74.8 % of control
25,"GTCAATTTAAATGGA (sugars l3 d9 l3, PS)",66.7 % of control
26,"TACTTTATTCCCTTAACAAT (sugars l2 d14 l4, PS)",91.3 % of control
27,"CTTCTAATTTAGTCACC (sugars l3 d10 l4, PS)",54.6 % of control
